Laboratory results: US6699477B2, “EBV CTL epitopes” (The Council of the Queensland Institute of Medical Research, priority 1996, dated 2004)
Like-named read-outs stand apart in the source and are kept apart here.

Experiments:
HLA [1] = settings: Table 4; cited from earlier work
EBV [2] = settings: Table 4; cited from earlier work
EBV [3] = experiment: EBV type of CTL epitopes of the invention (Table 3); assay type: cell-based, Epstein-Barr virus
CTL culture B5 = experiment: Identification of specific peptide target, overlapping peptides on autologous PHA blasts; assay type: cell-based, human; settings: peptides preincubated with autologous PHA blasts
Description: (§1) Limiting dilution cultures were established by distributing PBL from the fourth bleed in 24 replicates at 2×10^4 cells per well in 96-well round-bottomed microtitre plates. Doubling dilutions were made to a final concentration of 1.6×10^2 per well. Approximately 1×10^4 γ-irradiated (8000 rads) autologous type B (EW-Ag-876) LCLs were added to each well as both feeder and stimulator cells to a total volume of 100 μl. Cultures were fed on days 4 and 7 with 50 μl of T cell growth medium and assayed on day 10 or later. The plates were subcultured and maintained in T cell growth medium and stimulated with γ-irradiated EW-Ag-876 LCLs. Initial assays were against type A and type B LCLs and subsequently against peptide-coated PHA-blasts or LCLs. Precursor frequencies were determined by a modification of the method of maximum likelihood estimation (11). Assessment of peptide specific activity. For determination of the antigenic specificity at the peptide level, a set of 20-mer overlapping peptides of EBNA-6B (residues 100-1069 (46)) was prepared using a kit and software distributed by Chiron Mimotopes (Chiron Corporation, Sydney, Australia). Nine-mer and 10-mer overlapping peptides with unblocked C and N termini were manufactured by Chiron Mimotopes. Labelled target cells were preincubated with overlapping peptides in the 96-well trays for 30-60 minutes before adding effectors. […]

HLA [4] = settings: Table 3
T cell precursors = experiment: Limiting dilution cultures, epitope specific precursor frequency; settings: PBL of donor stimulated by autologous type B cells; assayed 12 weeks later
B-type epitope CTL = experiment: HLA-restriction CTL assay of type B-specific epitope, cell lines with or without specific peptide; assay type: cell-based, human; settings: QNGALAINTF specific CTLs, peptide-incubated targets of known HLA specificity
Description: as §1

Sequence | EBV Type (EBV [2]) | EBV Type (EBV [3]) | other results
CLGGLLTMV | Type 1 & 2 | – | HLA Rest. (HLA [1]): HLA A2
VSSEGRVAC | – | Type 1 | –
VSSDGLVAC | – | Type 1 | –
FLRGRAYGL | Type 1 | – | HLA Rest. (HLA [1]): HLA B8
AVLLHEESM | Type 1 | – | –
VFSDGRVAC | – | Type 1 | –
VPAPPVGPIV | – | Type 1 | –
VSFIEFVGW | Type 1 | – | –
VSSDGRVPC | – | Type 1 | –
RPPIFIRRL | Type 1 | – | HLA Rest. (HLA [1]): HLA B7
EENLLDFVRF | Type 1 & 2 | – | –
VEITPYKPTW | Type 1 | – | –
VPAPAGPIV | – | Type 1 | –
QNAARTLNTF [reference compound] | – | – | Recognition by type B specific culture B5 (CTL culture B5): nonreactive
QPRAPIRPI | Type 1 & 2 | – | HLA Rest. (HLA [1]): HLA B7
VELTPYKPTW | – | Type 1 | –
RYSIFFDY | Type 1 | – | –
VSSDGQVAC | – | Type 1 | –
VSSDGRVVC | – | Type 1 | HLA restriction (HLA [4]): HLA A29

Sequence | EBV Type (EBV [2]) | EBV Type (EBV [3]) | other results
TVFYNIPPMPL | Type 1 | – | HLA Rest. (HLA [1]): HLA DQ2
RRIYDLIKL | – | Type 1 | –
QVKWRMTTL | – | Type 2 | –
RRRWRRLTV | Type 1 | – | –
VEITPYEPTW | – | Type 1 | –
RLRAEAGVK | Type 1 | – | HLA Rest. (HLA [1]): HLA A3
KEHVIQNAF | Type 1 | – | –
TYSAGIVQI | – | Type 1 | –
HLAAQGMAY | Type 1 | – | –
VEITPYEPTG | – | Type 1 | –
DEPASTEPVHDQLL | Type 1 | – | –
SVRDRLARL | Type 1 & 2 | – | HLA Rest. (HLA [1]): HLA A2
QNGALAINTF [residues 213-222 of EBNA-6B] | – | Type 2 | Frequency (epitope specific T cell precursors) (T cell precursors): 1/16395; Recognition by type B specific culture B5 (CTL culture B5): minimal epitope; HLA restriction (B-type epitope CTL): B62 (B15)-restricted
DTPLIPLTIF | Type 1 | – | –
LPGPQVTAVLLHEES | Type 1 | – | –
TSLYNLRRGTALA | Type 1 & 2 | – | HLA Rest. (HLA [1]): HLA DR1
VSSDGRVAC | – | Type 1 | –
NPTQAPVIQLVHAVY | Type 1 | – | –
